Data from PMC7617869, “Molecular glues that inhibit deubiquitylase activity and inflammatory signaling” (Nature Structural & Molecular Biology, 2025).
Values joined by “and” are separate entries in the source; they are usually repeats but may differ in a detail not shown here. Equal values may be shown once.

Assays:
[1] = tested on: ISRE in THP-1 cells (TLR3 agonist polyI:C); experiment: THP-1 ISRE luciferase reporter, polyI:C stimulation; type: cell-based, human; conditions: polyI:C 1 µg/mL, 4 μM compound, 16 h
Procedure: (§1) THP-1 in vitro experiments
(§2) THP-1-DualTM cells (InvivoGen), derived from a human monocytic cell line, isolated from a patient with acute monocytic leukaemia, were cultured as per manufacturer’s guidance. Cells were seeded at 1x10^6 cells/mL in RPMI1640 media containing 10% fetal bovine serum (FBS), 1% penicillin-streptomycin (PS) (Gibco Laboratories) with DMSO (0.1%) (control) or in media containing JMS-175- […]
(§3) ng/mL) (Merck Life Science), ODN 2216 (1 µM) (Miltenyi Biotec), or Poly:IC (1 µg/mL) (InvivoGen).
(§4) Tofacitinib (Cambridge Biosciences) at 0.4 µM was used for comparison against a known JAK inhibitor.
(§5) Cells were centrifuged at 300 g for 5 minutes. Supernatant was removed and subjected to simultaneous study of the NF -κB pathway, by monitoring the activity of secreted alkaline phosphatase reporter (SEAP), and the IRF pathway, by assessing the activity o f a secreted Lucia luciferase using QUANTI - Blue ™ Solution and QUANTI -Luc™ 4 Lucia/Gaussia (InvivoGen), respectively, as per manufacturer’s instructions. Pelleted cells were used for FACS analysis using IFNα/β R1 APC-conjugated antibody or isotype control (Biotechne, FAB245A and IC002A), or unstained staining procedure with and without Zombie GreenTM (Biolegend). Samples were analysed using CytoFlex LX (Beckman) (50,000 live cells per condition). Median fluorescence intensity for APC channel gated on single cell live cells was analysed and compared as a percentage to control (no stimulation condition). […]

THP-1 cells = experiment: THP-1 live cell percentage; type: cell-based; conditions: THP-1, hIFNα2 25 ng/mL, 4 μM compound, 16 h
Procedure: as §1, §2, §3, §4, §5

[2] = tested on: ISG expression in healthy control PBMCs; experiment: Healthy PBMC type I IFN signaling gene expression array, IFNα2-stimulated; type: cell-based, human; conditions: IFNα2 20 ng/mL, 2 µM, 16 h
Procedure: NEM). Cell lysates were clarified by centrifugation at 15,000 g for 10 minutes at 4 °C. Clarified lysates were pre-cleared with control uncoupled agarose beads (UM400, LifeSensors) for 30 minutes on a rotator at 4 °C followed by centrifugation at 5,000 g for 2 minutes. Equal amount of pre-cleared lysates from individual samples were incubated with 20 µL Agarose-TUBE beads (pre-equilibrated with 1X Tris-buffered saline (TBS)) overnight on a rotator at 4 °C. Beads were collected by centrifugation at 5,000 g for 2 minutes at RT followed by four stringent washes with 1X TBST (TBS, 0.1% Tween-20). TUBE-pulldown proteins were eluted by boiling Agarose-TUBE beads in 2X LDS sample buffer supplemented with […] DTT for 15 minutes. Eluted proteins were resolved on NuPAGE™ 4–12% Bis–Tris gel followed by Western blotting using anti-IFNAR1 antibody (ab124764, Abcam).
(§6) PBMCs in vitro experiments
(§7) Peripheral blood mononuclear cells (PBMCs) from healthy and SSc donors were separated using density gradient method (Leucosep™, Greiner Bio-One International) from EDTA anticoagulated peripheral blood; isolated cells were washed twice by PBS. PBMCs were then incubated in RPMI1640 […]
For healthy PBMCs, cells were stimulated with 20 ng/mL of IFN (+/- compounds or DMSO). […] Concentration of CXCL10 was determined according to a 4-parameter logistic regression standard curve. […]
For Type I IFN signalling analysis, the human IFN I RT2 Profiler PCR Array (Qiagen, PAMM-016ZE) was performed on available RNA from healthy (n=3) and SSc (n=9) donors. […] Relative expression for each gene was determined, firstly by ∆CT calculated using the geometric mean of 4 housekeeping genes (ACTB, GAPDH, HPRT1, RPLP0), followed by 2^(-∆CT), and expressed as fold change to control, according to manufacturer’s guidance. IFN2α-induced ISGs in healthy donors were determined using a Student’s t-test (two-tail distribution and equal variances) on the triplicate fold change in 2^(-ΔCT) values between […]
(§8) R Foundation for Statistical Computing). The IFN2α inducible genes determined in healthy donors […]

[3] = tested on: composite ISG score in SSc PBMCs; experiment: SSc PBMC composite ISG score (CXCL10, IFIT1, ISG15, MX1); type: cell-based, human; conditions: for CXCL10 / IFIT1 / ISG15 / MX1: sheet Ext. 9e, SSc PBMCs, 20 values per compound (one per patient sample); for composite ISG score: unstimulated SSc PBMCs (n = 20), 2 µM, 16 h, relative to AP-5-145
Procedure: as §6, §7
For healthy PBMCs, cells were stimulated with 20 ng/mL of IFN (+/- compounds or DMSO). For SSc PBMCs, cells were in basal conditions with no additional IFN stimulation. Cells were centrifuged at 300 g for 10 minutes. […]
RNA was extracted from cell pellets using TRIzol™ (ThermoFisher
Scientific, Waltham, MA) and processed using Quick-RNA Miniprep Kit (Zymo Research) as per the manufacturer’s instruction.
For Type I IFN signalling analysis, the human IFN I RT2 Profiler PCR Array (Qiagen, PAMM-016ZE) was performed on available RNA from healthy (n=3) and SSc (n=9) donors. RNA was converted to cDNA using RT2 First Strand Kit (Qiagen). Next, the cDNA was mixed with RT2 SYBR Green Mastermix (Qiagen, Venlo). Successful PCR performance was confirmed by assay tests for genomic DNA contamination, RNA sample quality, as well as single melt curve determination and <35 Ct for each gene, leading to validated gene expression of 67 genes. Relative expression for each gene was determined, firstly by ∆CT calculated using the geometric mean of 4 housekeeping genes (ACTB, GAPDH, HPRT1, RPLP0), followed by 2^(-∆CT), and expressed as fold change to control, according to manufacturer’s guidance. IFN2α-induced ISGs in healthy donors were determined using a Student’s t-test (two-tail distribution and equal variances) on the triplicate fold change in 2^(-ΔCT) values between […]
donors). Heatmaps were generated using the “pheatmap” function in R (v4.0.2) and RStudio (v1.3.1093) applying row scaling to standardise the expression data across samples (R core team 2020.
as §8
171-C. To account for Type I IFN signalling heterogeneity across samples, the mean 2^(-∆CT) for each […]
relative gene expression, illustrated as a fold change and visualised in log2. The Type I IFN signalling array data for the patient samples is included in Source Data Figure 6, Extended Data Fig. 9.

| percentage of live cells (THP-1 cells) [%] | Structure (SMILES) | ISRE luciferase signal in THP-1 supernatant [1] | number of the 34 IFN-upregulated ISGs suppressed compared to AP-5-145 [2] | CXCL10 [3] | IFIT1 [3] | ISG15 [3] | MX1 [3] | composite ISG score [3] | IFN-induced ISG expression (in words) [2] |
| --- | --- | --- | --- | --- | --- | --- | --- | --- | --- |
| 98.05 | O=C(NC1CCNCC1)c1nn(C(=O)c2c(Cl)cccc2Cl)cc1NC(=O)c1c(Cl)cccc1Cl [JMS-175-2] | 486.333 and 543 and 491 | 13 | 0.2536 and 3.414 and 0.2313 and 0.3588 and 1.2272 and 0.4193 and 1.168 and 0.8338 and 0.6055 and 1.239 and 0.3406 and 0.08106 and 0.000123 and 0.3625 and 0.05611 and 0.1808 and 1.381 and 0.5771 and 0.5421 and 0.1347 | 0.2366 and 1.382 and 0.8014 and 0.1818 and 0.6785 and 0.4193 and 1.168 and 0.7189 and 1.817 and 1.319 and 1.1 and 0.2301 and 0.1676 and 0.4861 and 0.2758 and 0.6203 and 0.8038 and 0.5004 and 0.169 and 0.3186 | 0.4563 and 0.8641 and 0.6274 and 0.4056 and 0.5557 and 0.616 and 1.197 and 0.8342 and 1.6 and 0.5253 and 1.319 and 0.4936 and 0.2916 and 0.7218 and 0.3961 and 0.8921 and 0.9105 and 0.5615 and 0.4313 and 0.6786 | 0.223 and 0.8929 and 1.04 and 0.5006 and 0.9521 and 0.6554 and 1.256 and 0.9444 and 1.592 and 1.073 and 1.238 and 0.494 and 0.2991 and 0.4305 and 0.1662 and 0.4949 and 1.066 and 0.6875 and 0.4778 and 0.5729 | reduced the composite ISG score | – |
| 98.52 | Cn1cc(NC(=O)c2c(Cl)cccc2Cl)c(C(=O)NC2CCN(C(=O)c3c(Cl)cccc3Cl)CC2)n1 [AP-5-145] | 502.333 and 324.667 and 347.333 | – | 1.751 and 0.25 and 0.7382 and 0.8655 and 0.7967 and 0.4021 and 0.5617 and 1.22 and 0.6479 and 2.776 and 1.1866 and 0.5017 and 0.551 and 0.4363 and 0.9229 and 0.6553 and 1.25 and 0.7409 and 0.339 and 0.3688 | 0.6337 and 0.5474 and 0.8263 and 0.6524 and 0.6203 and 0.9706 and 0.5382 and 1.166 and 0.8191 and 0.9287 and 1.423 and 0.5364 and 0.8639 and 0.4363 and 0.9229 and 1.253 and 1.322 and 1.329 and 0.8934 and 0.7188 | 1.377 and 0.6237 and 1.266 and 0.7354 and 0.9639 and 0.9802 and 0.5935 and 1.766 and 0.659 and 0.6409 and 0.6943 and 0.6974 and 1.099 and 0.4464 and 1.007 and 1.459 and 1.622 and 0.4684 and 1.547 and 1.209 | 0.9424 and 0.9381 and 0.6518 and 0.8276 and 0.6072 and 1.137 and 0.7908 and 1.689 and 0.9753 and 0.9313 and 1.364 and 0.7737 and 0.8832 and 0.4676 and 0.7628 and 0.9541 and 1.254 and 0.9134 and 1.016 and 0.8618 | – | no difference in ISG expression profile |
| 97.99 | O=C(NC1C2CNCC21)c1nn(C(=O)c2c(Cl)cccc2Cl)cc1NC(=O)c1c(Cl)cccc1Cl (centres unmarked) [FX-171-C] | 374 and 491 and 321 | – | 1.514 and 0.251 and 1.066 and 0.167 and 0.5332 and 0.7533 and 1.612 and 0.6702 and 0.5368 and 1.6313 and 0.1436 and 0.6323 and 0.4166 and 0.1288 and 0.6936 and 0.646 and 0.6924 and 0.6022 and 0.5701 and 0.08999 | 0.2868 and 0.437 and 1.363 and 0.3735 and 0.4257 and 0.6696 and 0.8252 and 0.3503 and 0.5958 and 0.5382 and 1.388 and 0.256 and 0.9671 and 0.1288 and 0.6936 and 1.317 and 1.359 and 0.9945 and 0.8122 and 0.05751 | 0.9038 and 0.4123 and 1.522 and 0.5454 and 1.252 and 0.967 and 0.791 and 0.6842 and 0.9244 and 0.2949 and 0.1516 and 1.006 and 0.9237 and 0.1709 and 0.7851 and 1.799 and 0.9132 and 0.323 and 0.9506 and 0.1287 | 0.4428 and 0.9634 and 1.459 and 0.4711 and 0.7459 and 1.024 and 0.9419 and 0.919 and 0.9953 and 1.074 and 1.146 and 0.5685 and 0.9032 and 0.1777 and 0.6324 and 0.9421 and 1.363 and 0.7344 and 1.47 and 0.4028 | reduced the composite ISG score | less reduction in ISG expression |
